Like-named read-outs stand apart in the source and are kept apart here.
Assays:
Type in all cases: in vivo
[1] = tested on: Yellow Fever Mosquito (Aedes aegypti, AEDSAE); conditions: for YFM rating: Table ABC / ABC-DP rating
Summary of the method: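 Larvae ~1 day old, in liver powder/water; compound from 4000 ppm DMSO stock diluted with water/acetone (90:10); 6 reps; lidded, RT, 3 d; mortality scored per well, rated.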

[2] = tested on: Cabbage Looper (Trichoplusia ni, TRIPNI); experiment: Bioassays on Cabbage Looper (CL), 128-well diet tray assay; conditions: Trichoplusia ni
Summary of the method: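 Each of eight wells receives artificial diet treated at 50 μg/cm^2 with the test molecule, then one to five second-instar larvae. Incubation runs five to seven days at 25° C with a 14:10 light-dark cycle under vented covers. Mortality is scored per well as a percentage and averaged.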

[3] = tested on: Beet Armyworm (Spodoptera exigua, LAPHEG); experiment: Bioassays on Beet Armyworm (BAW), 128-well diet tray assay; conditions: Spodoptera exigua
Summary of the method: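 Eight diet wells per compound were treated at 50 μg/cm^2 (acetone-water 90:10), dried, then infested with 1–5 second-instar larvae each. After five to seven days at 25 °C under 14:10 photoperiod, mortality was scored and averaged across wells.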

[4] = Yellow Fever Mosquito, rating class
[5] = Cabbage Looper, rating class, read-out: CL
[6] = Beet Armyworm, rating class, read-out: BAW
[7] = Table ABC: Biological Results, species YFM
[8] = Table ABC: Biological Results, species CL, read-out: CL
[9] = Table ABC: Biological Results, species BAW, read-out: BAW
[10] = Cabbage Looper, Table ABC / ABC-DP rating, read-out: CL rating
[11] = Beet Armyworm, Table ABC / ABC-DP rating, read-out: BAW rating

`O=C(Nc1ccc(F)c(NC(=O)C(F)(F)C(F)F)c1F)c1cc(NC(=O)[C@H]2[C@H](c3cc(F)cc(C(F)(F)F)c3)C2(Cl)Cl)ccc1Cl` [F1707, 2-Chloro-5-((1R,3R)-2,2-dichloro-3-(3-fluoro-5-(trifluoromethyl)phenyl)cyclopropane-1-carboxamido)-N-(2,4-difluoro-3-(2,2,3,3-tetrafluoropropanamido)phenyl)benzamide] was tested, and the YFM [1, 4] was “A (80–100)”, the pest or weed control at 50 µg/cm2 [2, 5] was 50 to 100% and the pest or weed control at 50 µg/cm2 [3, 6] was 50 to 100%.
With `Cc1cc(NCc2ccc(O)cc2)ccc1NC(=O)c1cc(NC(=O)[C@H]2[C@H](c3cc(Cl)cc(Cl)c3)C2(Cl)Cl)ccc1Cl` (relative stereo) [F1353, trans-2-Chloro-5-(2,2-dichloro-3-(3,5-dichlorophenyl)cyclopropane-1-carboxamido)-N-(4-((4-hydroxybenzyl)amino)-2-methylphenyl)benzamide] the YFM [1, 7] was “A (80–100)”, the pest or weed control at 50 µg/cm2 [2, 8] was 50 to 100% and the pest or weed control at 50 µg/cm2 [3, 9] was 50 to 100%.
In the case of `O=C(Nc1ccc(F)c(NC(=O)[C@@H]2CCCO2)c1F)c1cc(NC(=O)[C@H]2[C@H](c3ccc(F)c(C(F)(F)F)c3)C2(Cl)Cl)ccc1Cl` [F1692, (S)—N-(3-(2-Chloro-5-((1R,3R)-2,2-dichloro-3-(4-fluoro-3-(trifluoromethyl)phenyl)cyclopropane-1-carboxamido)benzamido)-2,6-difluorophenyl)tetrahydrofuran-2-carboxamide], the YFM [1, 4] is reported as “B (More than 0 – Less than 80)”, the pest or weed control at 50 µg/cm2 [2, 5] is reported as 50 to 100% and the pest or weed control at 50 µg/cm2 [3, 6] is reported as 50 to 100%.
In the case of `CN(NCCC(F)(F)F)C(=O)c1cc(NC(=O)[C@H]2[C@H](c3cc(Cl)cc(Cl)c3)C2(Cl)Cl)ccc1Cl` (relative stereo) [F2552, trans-2,2-Dichloro-N-(4-chloro-3-(1-methyl-2-(3,3,3-trifluoropropyl)hydrazine-1-carbonyl)phenyl)-3-(3,5-dichlorophenyl)cyclopropane-1-carboxamide], the YFM rating ([1]; Yellow Fever Mosquito) is reported as “A (80–100)”, the pest or weed control at 50 µg/cm2 [2, 10] is reported as 50 to 100% and the pest or weed control at 50 µg/cm2 [3, 11] is reported as 50 to 100%.
For `O=C(Nc1c(F)ccc(NC(=O)c2cc(NC(=O)[C@H]3[C@H](c4ccc(F)c(C(F)(F)F)c4)C3(Cl)Cl)ccc2Cl)c1F)c1ccon1` [F1818, N-(3-(2-Chloro-5-((1R,3R)-2,2-dichloro-3-(4-fluoro-3-(trifluoromethyl)phenyl)cyclopropane-1-carboxamido)benzamido)-2,6-difluorophenyl)isoxazole-3-carboxamide], the YFM rating ([1]; Yellow Fever Mosquito) was “A (80–100)”, the pest or weed control at 50 µg/cm2 [2, 10] was 50 to 100% and the pest or weed control at 50 µg/cm2 [3, 11] was 50 to 100%.
With `O=C(NNc1ncccn1)c1cc(NC(=O)[C@H]2[C@H](c3cc(Cl)cc(Cl)c3)C2(Cl)Cl)ccc1Cl` (relative stereo) [F2508, trans-2,2-Dichloro-N-(4-chloro-3-(2-(pyrimidin-2-yl)hydrazine-1-carbonyl)phenyl)-3-(3,5-dichlorophenyl)cyclopropane-1-carboxamide] the YFM rating ([1]; Yellow Fever Mosquito) was “A (80–100)”, the pest or weed control at 50 µg/cm2 [2, 10] was 50 to 100% and the pest or weed control at 50 µg/cm2 [3, 11] was 50 to 100%.
With `CC(=O)Nc1ccc(NC(=O)c2cc(NC(=O)[C@H]3[C@H](c4ccc(F)c(Cl)c4)C3(Cl)Cl)cc(C(F)(F)F)c2Cl)cc1` (relative stereo) [F1216, trans-N-(4-Acetamidophenyl)-2-chloro-5-(2,2-dichloro-3-(3-chloro-4-fluorophenyl)cyclopropane-1-carboxamido)-3-(trifluoromethyl)benzamide] the YFM [1, 7] was “A (80–100)”, the pest or weed control at 50 µg/cm2 [2, 8] was 50 to 100% and the pest or weed control at 50 µg/cm2 [3, 9] was 50 to 100%.
`C=CCC(=O)Nc1c(F)ccc(NC(=O)c2cc(NC(=O)[C@H]3[C@H](c4ccc(F)c(C(F)(F)F)c4)C3(Cl)Cl)ccc2Cl)c1F` [F1874, N-(3-(But-3-enamido)-2,4-difluorophenyl)-2-chloro-5-((1R,3R)-2,2-dichloro-3-(4-fluoro-3-(trifluoromethyl)phenyl)cyclopropane-1-carboxamido)benzamide] was tested, and the YFM rating ([1]; Yellow Fever Mosquito) was “A (80–100)”, the pest or weed control at 50 µg/cm2 [2, 10] was 50 to 100% and the pest or weed control at 50 µg/cm2 [3, 11] was 50 to 100%.
For `O=C(CC1CC1)Nc1c(F)ccc(NC(=O)c2cc(NC(=O)[C@H]3[C@H](c4ccc(F)c(C(F)(F)F)c4)C3(Cl)Cl)ccc2Cl)c1F` [F1682, 2-Chloro-N-(3-(2-cyclopropylacetamido)-2,4-difluorophenyl)-5-((1R,3R)-2,2-dichloro-3-(4-fluoro-3-(trifluoromethyl)phenyl)cyclopropane-1-carboxamido)benzamide], the YFM [1, 4] was “A (80–100)”, the pest or weed control at 50 µg/cm2 [2, 5] was 50 to 100% and the pest or weed control at 50 µg/cm2 [3, 6] was 50 to 100%.
For `COc1c(F)cc(NC(=O)[C@H]2[C@H](c3ccc(F)c(Cl)c3)C2(Cl)Cl)cc1C(=O)NCC(F)(F)F` (relative stereo) [F2058, trans-5-(2,2-Dichloro-3-(3-chloro-4-fluorophenyl)cyclopropane-1-carboxamido)-3-fluoro-2-methoxy-N-(2,2,2-trifluoroethyl)benzamide], the YFM rating ([1]; Yellow Fever Mosquito) was “A (80–100)”, the pest or weed control at 50 µg/cm2 [2, 10] was 50 to 100% and the pest or weed control at 50 µg/cm2 [3, 11] was 50 to 100%.
`CC(Cl)(Cl)C(=O)Nc1c(F)ccc(NC(=O)c2cc(NC(=O)[C@H]3[C@H](c4ccc(F)c(C(F)(F)F)c4)C3(Cl)Cl)ccc2Cl)c1F` [F1351, 2-Chloro-5-((1R,3R)-2,2-dichloro-3-(4-fluoro-3-(trifluoromethyl)phenyl)cyclopropane-1-carboxamido)-N-(3-(2,2-dichloropropanamido)-2,4-difluorophenyl)benzamide] was tested, and the YFM [1, 7] was “A (80–100)”, the pest or weed control at 50 µg/cm2 [2, 8] was 50 to 100% and the pest or weed control at 50 µg/cm2 [3, 9] was 50 to 100%.
For `O=C(NNc1ccc(OC(F)(F)F)cc1)c1cc(NC(=O)[C@H]2[C@H](c3cc(Cl)cc(Cl)c3)C2(Cl)Cl)ccc1Cl` (relative stereo) [F2564, trans-2,2-Dichloro-N-(4-chloro-3-(2-(4-(trifluoromethoxy)phenyl)hydrazine-1-carbonyl)phenyl)-3-(3,5-dichlorophenyl)cyclopropane-1-carboxamide], the YFM rating ([1]; Yellow Fever Mosquito) was “A (80–100)”, the “YFM % Control (or Mortality) rating” value ([1]; about 1 day-old larvae, 4000 ppm master solution diluted with 90:10 water/acetone, 15 μL per well plus 220 μL larval mixture, 3 days, mortality) was “A (80–100)” and the mortality at 50 µg/cm2 ([2]; 168 h, second instar larvae, 50 μg/cm^2 of test molecule on artificial diet, 25° C., five to seven days, average of eight wells, read-out: CL % Control (or Mortality) rating) was 50 to 100%. For the same compound, the pest or weed control at 50 µg/cm2 [2, 10] was 50 to 100%, the mortality at 50 µg/cm2 ([3]; 168 h, second instar larvae, 50 μg/cm^2 of test molecule on artificial diet, 25° C., five to seven days, average of eight wells, read-out: BAW % Control (or Mortality) rating) was 50 to 100% and the pest or weed control at 50 µg/cm2 [3, 11] was 50 to 100%.
With `CN(C(=O)C(F)(F)F)c1c(F)ccc(NC(=O)c2cc(NC(=O)[C@H]3[C@H](c4ccc(Cl)c(Cl)c4)C3(Cl)Cl)ccc2Cl)c1F` [F1614, 2-Chloro-5-((1R,3R)-2,2-dichloro-3-(3,4-dichlorophenyl)cyclopropane-1-carboxamido)-N-(2,4-difluoro-3-(2,2,2-trifluoro-N-methylacetamido)phenyl)benzamide] the YFM [1, 4] was “A (80–100)”, the pest or weed control at 50 µg/cm2 [2, 5] was 50 to 100% and the pest or weed control at 50 µg/cm2 [3, 6] was 50 to 100%.
For `O=C(COC(F)F)Nc1c(F)ccc(NC(=O)c2cc(NC(=O)[C@H]3[C@H](c4ccc(F)c(C(F)(F)F)c4)C3(Cl)Cl)ccc2Cl)c1F` [F1790, 2-Chloro-5-((1R,3R)-2,2-dichloro-3-(4-fluoro-3-(trifluoromethyl)phenyl)cyclopropane-1-carboxamido)-N-(3-(2-(difluoromethoxy)acetamido)-2,4-difluorophenyl)benzamide], the YFM rating ([1]; Yellow Fever Mosquito) was “A (80–100)”, the pest or weed control at 50 µg/cm2 [2, 10] was 50 to 100% and the pest or weed control at 50 µg/cm2 [3, 11] was 50 to 100%.
In the case of `O=C(NCC(F)(F)c1ccccc1)c1cc(NC(=O)[C@H]2[C@H](c3cc(Cl)cc(Cl)c3)C2(Cl)Cl)cc(F)c1Cl` (relative stereo) [F2091, trans-2-Chloro-5-(2,2-dichloro-3-(3,5-dichlorophenyl)cyclopropane-1-carboxamido)-N-(2,2-difluoro-2-phenylethyl)-3-fluorobenzamide], the YFM rating ([1]; Yellow Fever Mosquito) is reported as “A (80–100)”, the pest or weed control at 50 µg/cm2 [2, 10] is reported as 50 to 100% and the pest or weed control at 50 µg/cm2 [3, 11] is reported as 50 to 100%.
`Nc1ccc(NC(=O)c2cc(NC(=O)[C@H]3[C@H](c4ccc(F)c(Cl)c4)C3(Cl)Cl)ccc2Cl)cc1Cl` (relative stereo) [F1370, trans-N-(4-Amino-3-chlorophenyl)-2-chloro-5-(2,2-dichloro-3-(3-chloro-4-fluorophenyl)cyclopropane-1-carboxamido)benzamide] was tested, and the YFM [1, 7] was “A (80–100)”, the pest or weed control at 50 µg/cm2 [2, 8] was 50 to 100% and the pest or weed control at 50 µg/cm2 [3, 9] was 50 to 100%.
`O=C(Nc1ccc(F)cc1F)c1cc(NC(=O)C2C(c3cc(Br)cc(S(F)(F)(F)(F)F)c3)C2(Cl)Cl)ccc1Cl` (stereo not drawn) [F1032, cis-5-(3-(3-Bromo-5-(pentafluoro-λ^6-sulfanyl)phenyl)-2,2-dichiorocyclopropane-1-carboxamido)-2-chloro-N-(2,4-difluorophenyl)benzamide] was tested, and the YFM [1, 7] was “A (80–100)”, the pest or weed control at 50 µg/cm2 [2, 8] was 50 to 100% and the pest or weed control at 50 µg/cm2 [3, 9] was 50 to 100%.
For `CN(NC(=O)c1cc(NC(=O)[C@H]2[C@H](c3ccc(Cl)c(Cl)c3)C2(Cl)Cl)ccc1Cl)c1ccccc1` [F2513, (1R,3R)-2,2-Dichloro-N-(4-chloro-3-(2-methyl-2-phenylhydrazine-1-carbonyl)phenyl)-3-(3,4-dichlorophenyl)cyclopropane-1-carboxamide], the YFM rating ([1]; Yellow Fever Mosquito) was “A (80–100)”, the pest or weed control at 50 µg/cm2 [2, 10] was 50 to 100% and the pest or weed control at 50 µg/cm2 [3, 11] was 50 to 100%.
